Laboratory results: article PMC12040169 (PLOS Biology, 2025)

assay: in vitro; conditions: human, hela cells, % viability

SMILES | viability at 28.5 h, 10 µM [%]
Cc1cc(C(=O)CSc2ccc(Cl)nn2)c(C)n1C1CC1 [CBK305512] | 99.2
O=S1(=O)CCC(c2nnc(C3(c4ccc(Br)cc4)CCOCC3)o2)C1 (stereo not shown) [CBK305513] | 115
Cc1c(C(=O)N(C(C)C)C2CC2)nnn1-c1ccc2ncccc2c1 [CBK305518] | 92.5
Cc1c(C(=O)N2CCC(n3cncn3)CC2)sc2cccc(F)c12 [CBK305520] | 103
Cc1cc(CNC(=O)Nc2ccc(F)c(-n3nnnc3C)c2)n(C)n1 [CBK305525] | 88.4
CN(C(=O)CN1CSCC1=O)c1nc2c(s1)CC(c1ccccc1)CC2 (stereo not shown) [CBK305526] | 91.6
Cc1cc(C)c2c(OCC(=O)Nc3nc(C(N)=O)cs3)nn(C)c2n1 [CBK305530] | 83.9
CCc1cc(=O)[nH]c(-c2ccc(N3CCOCC3C)nc2)n1 (stereo not shown) [CBK305532] | 95.7
CCOc1nnc(CN(CCC(N)=O)c2ccc(F)cc2)s1 [CBK305536] | 110
CCNC(=O)N(C)C1CCN(c2ncnc3ccccc23)CC1 [CBK305537] | 110
CCc1nn(C)c2[nH]nc(NC(=O)Cc3csc(C)n3)c12 [CBK305538] | 91.7
CC(C)(c1noc(C2CCOCC2)n1)S(=O)(=O)c1ccc(Br)cc1 [CBK305543] | 93.5
Cc1cc(NC(=O)C2CCN(CC3CCCO3)CC2)no1 (stereo not shown) [CBK305544] | 110
Cc1cc(NC(=O)C2CCN(C(=O)c3cnc(N)c(Cl)c3)CC2)no1 [CBK305545] | 110
Cc1cc(C)n(CC(=O)NC2CCCOc3c(F)cccc32)n1 (stereo not shown) [CBK305553] | 106
Cc1ncsc1C(=O)NCc1ccc(S(=O)(=O)N2CCCCC2)cc1 [CBK305556] | 89.9
Cc1cc(CNC(=O)C2CC(=O)N(Cc3ccccn3)C2)ccc1F (stereo not shown) [CBK305557] | 77.3
CCC(Oc1ccccc1F)C(=O)Nc1cc(C)on1 (stereo not shown) [CBK305558] | 98.5
CCCS(=O)(=O)N1CCC(C(=O)NCc2ccc(Cl)cc2Cl)CC1 [CBK305559] | 102
Cc1cc(N2CCN(C(=O)Cc3cccs3)CC2)nc(C(C)C)n1 [CBK305562] | 88.1
COC(=O)c1cccc(OCC(O)Cn2nc(C)c(C)c(C#N)c2=O)c1 (stereo not shown) [CBK305563] | 85.3

SMILES | viability at 28.5 h, 10 µM [%]
CN(C)C(CNC(=O)Nc1cccc(C(=O)NC2CC2)c1)c1cccs1 (stereo not shown) [CBK305565] | 115
Cc1noc(CN2CCN(c3ccc4nnc(C(F)(F)F)n4n3)CC2)n1 [CBK305566] | 93.3
CC(=O)Nc1ccc(OCC(O)Cn2ncc3ccccc3c2=O)cc1 (stereo not shown) [CBK305567] | 105
O=C1NC2(CCCCCC2)C(=O)N1Cc1cnn(-c2ccccc2)n1 [CBK305571] | 100
Cc1nn(-c2ccccc2)c(CN2C(=O)NC3(CCCC3)C2=O)c1C#N [CBK305572] | 81.4
CCOC(=O)C1CCCN(C(=O)Cn2ncc(Cl)c(Cl)c2=O)C1 (stereo not shown) [CBK305573] | 47.7
COc1ccc(OCC(O)Cn2c(CCCO)nc3ccccc32)cc1 (stereo not shown) [CBK305579] | 101
COCCn1c(SC(C)C(=O)N2CCOCC2)nc2cc(Cl)ccc21 (stereo not shown) [CBK305580] | 94.8
CCCN1CCC(NC(=O)Cn2nnc3ccccc3c2=O)CC1 [CBK305581] | 102
CCCc1nnc(SCC(=O)Nc2ccc(CN3CCOCC3)cc2)[nH]1 [CBK305583] | 82.4
O=C(NC1CCN(Cn2nnc3ccccc3c2=O)CC1)C1CC1 [CBK305584] | 82.3
CCOC(=O)c1cnn2c(O)cc(CN3CCCCC3)nc12 [CBK305585] | 101
CS(=O)(=O)NCC1CCCCN1Cc1ccc(-n2cccn2)cc1 (stereo not shown) [CBK305587] | 91.9
CC(=O)N1CCN(CC(O)Cn2c3ccccc3c3ccccc32)CC1 (stereo not shown) [CBK305588] | 102
O=C(Cn1nnc2ccccc2c1=O)NC1CCN2CCCCC12 (stereo not shown) [CBK305589] | 105
Cc1cc(C)n(CC(=O)Nc2nc(CN3CCC(C)CC3)cs2)n1 [CBK305592] | 101
COc1ncccc1CNC(=O)Cn1ccc(=O)[nH]c1=O [CBK305596] | 99.9
COc1ccccc1-c1noc(CN2CCCC(C(F)(F)F)C2)n1 (stereo not shown) [CBK305598] | 93.6
Cc1cc(NC(=O)CN(C)Cc2ccc(Br)cc2)on1 [CBK305599] | 97.3
N#Cc1ccc(C(=O)NCC2(N3CCOCC3)CCSC2)cc1 (stereo not shown) [CBK305602] | 95.3
CCc1nn2c(=O)cc(CNc3ccccc3CN(C)C(C)=O)nc2s1 [CBK305604] | 114

SMILES | viability at 28.5 h, 10 µM [%]
CC(Cn1cccn1)NS(=O)(=O)c1ccc(N2CCCC2=O)cc1 (stereo not shown) [CBK305606] | 83.7
CCC1CCCCN1C(=O)CCc1c(C)nc(-c2ccccc2)[nH]c1=O (stereo not shown) [CBK305608] | 87.5
Cc1oc(NC(=O)CN(C)Cc2cccc(F)c2)c(C#N)c1C [CBK305609] | 90.9
Cc1cc(NC(=O)CN2CCN(Cc3ccc4c(c3)CCO4)CC2)on1 [CBK305610] | 92.5
Cc1nc(CN2CCN(C(=O)NCCc3cnn(C)c3)CC2)cs1 [CBK305614] | 81.3
CC(=O)Nc1ccc(OCC(O)Cn2nc(-c3ccco3)oc2=O)cc1 (stereo not shown) [CBK305615] | 97.9
Cc1cc(C)n2ncc(C(=O)N3CCCC3c3ccsc3)c2n1 (stereo not shown) [CBK305616] | 94.6
CC(C)(C)OC(=O)N1CCCC(C(=O)NC2CCCc3ccccc32)C1 (stereo not shown) [CBK305617] | 93.2
COc1cccc(CC(=O)NCC(c2cccs2)N2CCOCC2)c1 (stereo not shown) [CBK305621] | 95.9
Cc1cc(NC(=O)CN(C)Cc2cnn(-c3ccccc3)c2)on1 [CBK305622] | 92.5
CS(=O)(=O)NC1CCCN(c2nc(-c3ccsc3)nc3ccccc23)C1 (stereo not shown) [CBK305623] | 99.1
CCOC(=O)c1cnn2c(O)cc(CN(Cc3cccs3)C3CC3)nc12 [CBK305625] | 96.9
Cn1cc(-c2nc(C(=O)N3CCN(c4ncccn4)CC3)cs2)cn1 [CBK305626] | 91
Cc1cc(CN2CCN(C(=O)NCc3cccnc3)CC2)on1 [CBK305627] | 114
Cc1cc(C)n(CC(C)CNC(=O)Cc2csc(-c3ccco3)n2)n1 (stereo not shown) [CBK305628] | 103
Cc1cc(C2CCCN2C(=O)c2cnn3c(C)cc(C)nc23)on1 (stereo not shown) [CBK305634] | 109
Cc1cc(CN2CCN(C(=O)NCCc3ccccn3)CC2)on1 [CBK305637] | 80
Cc1ccccc1Nc1nc(N)nc(CN2CCCC2C(=O)N(C)C)n1 (stereo not shown) [CBK305638] | 81
Cc1nc(CNC(=O)NC2CCCN(c3ncccn3)C2)cs1 (stereo not shown) [CBK305640] | 95.3
Cc1cc(CN2CCN(C(C)c3nc(C(C)(C)C)no3)CC2)no1 (stereo not shown) [CBK305641] | 97.7
Cc1ccc(CNC(=O)Cc2csc(N3CCCC3=O)n2)n1C [CBK305642] | 98.6

SMILES | viability at 28.5 h, 10 µM [%]
CCN(Cc1ccc(C#N)cc1F)C(=O)NC(C)c1cnn(C)c1C (stereo not shown) [CBK305643] | 108
Cc1cc(NC(=O)CN2CCN(Cc3ccccc3C#N)CC2)no1 [CBK305644] | 77.3
O=C(NCc1cc[nH]n1)N1CCCN(Cc2cccs2)CC1 [CBK305645] | 82
Cc1ccccc1Nc1nc(N)nc(CN2CCOCC2)n1 [CBK305646] | 87.5
CCOC(=O)c1cnn2c(O)cc(CN3CCCC3c3ccsc3)nc12 (stereo not shown) [CBK305647] | 96.1
CC(C)(C)OC(=O)N1CCN(C(=O)c2cc(-c3cccnc3)on2)CC1 [CBK305648] | 88.7
Cc1cccc(CN2CCC(NC(=O)Cn3cnnn3)CC2)c1 [CBK305649] | 95.9
CS(=O)(=O)N1CCc2cc(-c3csc(NCC(F)(F)F)n3)ccc21 [CBK305650] | 95.4
CCN(CC1CCOC1)C(=O)c1cn2ccccc2n1 (stereo not shown) [CBK305653] | 83.5
Cc1sc2ncn(CC(=O)NCc3nnc4n3CCC4)c(=O)c2c1C [CBK305654] | 93.8
O=C(NCC(=O)N1CCCC1c1cccs1)c1cccc(Br)c1 (stereo not shown) [CBK305655] | 99.2
Cn1cc(CCNC(=O)Nc2ccc(N3CCCC3)nc2)cn1 [CBK305659] | 92.3
CCN(C(C)COC)S(=O)(=O)c1ccc(-n2ncc(Cl)c(Cl)c2=O)cc1 (stereo not shown) [CBK305662] | 37
CCN1CCC(CNS(=O)(=O)c2ccc(N3CCCC3=O)cc2)CC1 [CBK305663] | 101
Cn1cc(C(=O)NC2CCN(C(=O)c3ccc4c(c3)CCC4)CC2)cn1 [CBK305664] | 97.8
Cc1cccc(CN2CCC(NC(=O)Cn3ccccc3=O)CC2)c1 [CBK305667] | 111
Cc1ccc2c(c1)CCCN2C(=O)c1cnc2c(c1)c(C)nn2C [CBK305670] | 96
Cc1nc(CNc2ccc3nnc(C(F)(F)F)n3n2)cs1 [CBK305674] | 91.6
Cc1cc(C)n2ncc(C(=O)NCC(c3cccs3)N3CCCC3)c2n1 (stereo not shown) [CBK305675] | 85.3
